24 compounds from US6703347B2, “Isothiazole derivatives and their use as pesticides” (Syngenta Limited, priority 2000, dated 2004) can be followed below.

SMILES strings stand for the structures.

The test system of series [1] is tobacco budworms (Heliothis virescens). As to the kind of experiment: pesticidal test against tobacco budworms. As to conditions: liquid composition containing 500 ppm by weight of compound.
Protocol: (§1) The activities of individual compounds of formula (I) were determined using a variety of pests. The pests were treated with a liquid composition containing 500 parts per million (ppm) by weight of a compound of formula (I). Each composition was made by dissolving the compound in an acetone and ethanol (50:50 by volume) mixture and diluting the solution with water containing 0.05% by volume of a wetting agent, SYNPERONIC NP8, until the liquid composition contained the required concentration of the compound.
(§2) The test procedure adopted with regard to each pest was essentially the same and comprised supporting a number of the pests on a medium, which was usually a substrate, a host plant or a foodstuff on which the pests feed, and treating either or both the medium and the pests with a composition. Pest mortality was assessed usually between two and five days after treatment.
(§3) Similar tests were conducted against, independently, two-spotted spider mites (Tetranychus urticae), fruit flies (Drosophila melanogaster), tobacco budworms (Heliothis virescens), diamond back moth (Plutella xylostella) and corn root worm (Diabrotica balteata).
Series [2] deals with corn root worm (Diabrotica balteata). Kind of series: pesticidal test against corn root worm. As to conditions: liquid composition containing 500 ppm by weight of compound.
Protocol: as §1, §2, §3
The subject of series [3] is fruit flies (Drosophila melanogaster). Kind of series: pesticidal test against fruit flies. The note with it: liquid composition containing 500 ppm by weight of compound.
Protocol: as §1, §2, §3
Series [4] has as its system diamond back moth (Plutella xylostella). Kind of series: pesticidal test against diamond back moth. As to conditions: liquid composition containing 500 ppm by weight of compound.
Protocol: as §1, §2, §3
Series [5] deals with peach potato aphids (Myzus persicae). As to conditions: 500 ppm by weight; infested Chinese cabbage leaves sprayed; mortality assessed after three days.
Protocol: This Example illustrates the pesticidal/insecticidal properties of compounds of formula (I). The activities of individual compounds of formula (I) were determined using a variety of pests. The pests were treated with a liquid composition containing 500 parts per million (ppm) by weight of a compound of formula (I). Each composition was made by dissolving the compound in an acetone and ethanol (50:50 by volume) mixture and diluting the solution with water containing 0.05% by volume of a wetting agent, SYNPERONIC NP8, until the liquid composition contained the required concentration of the compound.
as §2
In each test against peach potato aphids (Myzus persicae), Chinese cabbage leaves were infested with aphids, the infested leaves were sprayed with a test composition and pest mortality was assessed after three days.

`CCOCN(C(=O)C(C)c1ccc2oc(CC(F)(F)F)nc2c1)c1snc(C)c1Cl` (stereo not drawn) [Table 1 Compound 78]: the “mortality (score) Hv” value in series [1] is recorded as 9 (9 indicates 80-100% mortality). The “mortality (score) Db” value in series [2] is given as 9 (9 indicates 80-100% mortality). Further, in series [3], the “mortality (score) Dm” value is 9 (9 indicates 80-100% mortality). Besides, the “mortality (score) Px” value in series [4] is on record as 9 (9 indicates 80-100% mortality). Also, the “mortality (score) Mp” value in series [5] is 9 (9 indicates 80-100% mortality).
For the compound `CCOCN(C(=O)CCc1ccc2oc(CC(C)(C)C)nc2c1)c1snc(C)c1Cl` [Table 82 Compound 77], the “mortality (score) Hv” value in series [1] is 0 (represents less than 40% mortality). Moreover, in series [3], the “mortality (score) Dm” value is 0 (represents less than 40% mortality). Also, the “mortality (score) Px” value in series [4] is 0 (represents less than 40% mortality). For the same compound, the “mortality (score) Mp” value in series [5] was 9 (9 indicates 80-100% mortality).
Take `CCc1nsc(NC(=O)C(C)c2ccc3sc(CC(C)(C)C)nc3c2)c1Cl` (stereo not drawn) [Table 39 Compound 87]: the “mortality (score) Hv” value in series [1] is given as 9 (9 indicates 80-100% mortality). Besides, in series [2], the “mortality (score) Db” value is on record as 9 (9 indicates 80-100% mortality). Also, the “mortality (score) Dm” value in series [3] is given as 0 (represents less than 40% mortality). In addition, in series [4], the “mortality (score) Px” value is listed as 9 (9 indicates 80-100% mortality). In series [5], the “mortality (score) Mp” value is given as 0 (represents less than 40% mortality).
Turning to `CCOCN(C(=O)C(C)c1ccc2oc(CC(C)C)nc2c1)c1snc(CC)c1Cl` (stereo not drawn) [Table 1 Compound 156], in series [5], the “mortality (score) Mp” value is recorded as 9 (9 indicates 80-100% mortality).
With `CCc1nsc(NC(=O)C(F)c2ccc3oc(C(F)(F)C(F)(F)C(F)(F)F)nc3c2)c1Cl` (stereo not drawn) [Table 5 Compound 90], the “mortality (score) Db” value in series [2] is listed as 9 (9 indicates 80-100% mortality). Moreover, the “mortality (score) Dm” value in series [3] is given as 9 (9 indicates 80-100% mortality). Also, the “mortality (score) Px” value in series [4] is given as 9 (9 indicates 80-100% mortality). The “mortality (score) Mp” value in series [5] was 9 (9 indicates 80-100% mortality).
For `CCc1nsc(NC(=O)C(C)c2ccc3oc(C)nc3c2)c1Cl` (stereo not drawn) [Table 1 Compound 81], the “mortality (score) Db” value in series [2] is listed as 9 (9 indicates 80-100% mortality). In addition, the “mortality (score) Dm” value in series [3] is 9 (9 indicates 80-100% mortality). In series [4], the “mortality (score) Px” value is given as 9 (9 indicates 80-100% mortality). In addition, the “mortality (score) Mp” value in series [5] is given as 9 (9 indicates 80-100% mortality).
With `CCc1nsc(NC(=O)C(C)c2ccc3oc(C(F)(F)C(F)(F)C(F)(F)F)nc3c2)c1Cl` (stereo not drawn) [Table 1 Compound 90], the “mortality (score) Db” value in series [2] is recorded as 9 (9 indicates 80-100% mortality). Besides, the “mortality (score) Dm” value in series [3] is 0 (represents less than 40% mortality). In addition, the “mortality (score) Px” value in series [4] is 9 (9 indicates 80-100% mortality). The “mortality (score) Mp” value in series [5] is 0 (represents less than 40% mortality).
`CCc1nsc(NC(=O)C(CC)c2ccc3oc(C(F)(F)C(F)(F)C(F)(F)F)nc3c2)c1Cl` (stereo not drawn) [Table 2 Compound 90]: the “mortality (score) Hv” value in series [1] is listed as 9 (9 indicates 80-100% mortality). The “mortality (score) Db” value in series [2] is 0 (represents less than 40% mortality). Moreover, the “mortality (score) Dm” value in series [3] is 0 (represents less than 40% mortality). In addition, in series [5], the “mortality (score) Mp” value is reported as 0 (represents less than 40% mortality).
With `CCc1nsc(NC(=O)C(C)c2ccc3oc(CC(C)C)nc3c2)c1Cl` (stereo not drawn) [Table 1 Compound 86], in series [2], the “mortality (score) Db” value was 9 (9 indicates 80-100% mortality). Besides, the “mortality (score) Dm” value in series [3] is 9 (9 indicates 80-100% mortality). Further, the “mortality (score) Px” value in series [4] was 9 (9 indicates 80-100% mortality). Moreover, the “mortality (score) Mp” value in series [5] is on record as 9 (9 indicates 80-100% mortality).
On to `CCOCN(C(=O)C(C)c1ccc2oc(C(F)(F)C(F)(F)C(F)(F)F)nc2c1)c1snc(C)c1Cl` (stereo not drawn) [Table 1 Compound 80], for which the “mortality (score) Hv” value in series [1] is listed as 9 (9 indicates 80-100% mortality). Moreover, in series [2], the “mortality (score) Db” value is listed as 9 (9 indicates 80-100% mortality). Besides, the “mortality (score) Dm” value in series [3] is listed as 0 (represents less than 40% mortality). For the same compound, the “mortality (score) Px” value in series [4] is on record as 9 (9 indicates 80-100% mortality). The “mortality (score) Mp” value in series [5] was 5 (5 indicates 40-79% mortality).
In the case of `CCOCN(C(=O)C(F)c1ccc2oc(CC(C)(C)C)nc2c1)c1snc(CC)c1Cl` (stereo not drawn) [Table 5 Compound 157], the “mortality (score) Hv” value in series [1] was 9 (9 indicates 80-100% mortality). Also, the “mortality (score) Db” value in series [2] is 9 (9 indicates 80-100% mortality). For the same compound, the “mortality (score) Dm” value in series [3] is reported as 9 (9 indicates 80-100% mortality). Further, in series [4], the “mortality (score) Px” value is listed as 9 (9 indicates 80-100% mortality). Also, the “mortality (score) Mp” value in series [5] is listed as 9 (9 indicates 80-100% mortality).
In the case of `CCOCN(C(=O)C(F)c1ccc2oc(CC(C)(C)C)nc2c1)c1snc(C)c1Cl` (stereo not drawn) [Table 5 Compound 77], the “mortality (score) Hv” value in series [1] was 5 (5 indicates 40-79% mortality). In addition, the “mortality (score) Db” value in series [2] was 9 (9 indicates 80-100% mortality). Besides, in series [3], the “mortality (score) Dm” value was 0 (represents less than 40% mortality). The “mortality (score) Px” value in series [4] is given as 9 (9 indicates 80-100% mortality). For the same compound, the “mortality (score) Mp” value in series [5] was 9 (9 indicates 80-100% mortality).
For the compound `CCOCN(C(=O)C(F)c1ccc2oc(C(F)(F)C(F)(F)C(F)(F)F)nc2c1)c1snc(CC)c1Cl` (stereo not drawn) [Table 5 Compound 160], the “mortality (score) Db” value in series [2] was 9 (9 indicates 80-100% mortality). Also, the “mortality (score) Dm” value in series [3] is on record as 0 (represents less than 40% mortality). Besides, the “mortality (score) Px” value in series [4] was 9 (9 indicates 80-100% mortality). In series [5], the “mortality (score) Mp” value is given as 9 (9 indicates 80-100% mortality).
As to `CCOCN(C(=O)C(C)c1ccc2oc(CC(C)(C)C)nc2c1)c1snc(C)c1Cl` (stereo not drawn) [Table 1 Compound 77], in series [1], the “mortality (score) Hv” value is on record as 9 (9 indicates 80-100% mortality). For the same compound, the “mortality (score) Db” value in series [2] is 9 (9 indicates 80-100% mortality). Further, the “mortality (score) Dm” value in series [3] is 0 (represents less than 40% mortality). Also, in series [4], the “mortality (score) Px” value is on record as 9 (9 indicates 80-100% mortality). Further, in series [5], the “mortality (score) Mp” value is reported as 9 (9 indicates 80-100% mortality).
Consider `CCc1nsc(NC(=O)C(F)c2ccc3oc(CC(C)C)nc3c2)c1Cl` (stereo not drawn) [Table 5 Compound 86], for which the “mortality (score) Hv” value in series [1] is listed as 9 (9 indicates 80-100% mortality). The “mortality (score) Dm” value in series [3] is 9 (9 indicates 80-100% mortality). The “mortality (score) Px” value in series [4] was 9 (9 indicates 80-100% mortality). In series [5], the “mortality (score) Mp” value was 9 (9 indicates 80-100% mortality).
`CCc1nsc(NC(=O)C(C)c2ccc3oc(CC(F)(F)F)nc3c2)c1Cl` (stereo not drawn) [Table 1 Compound 88]: the “mortality (score) Db” value in series [2] was 9 (9 indicates 80-100% mortality). In addition, the “mortality (score) Dm” value in series [3] is 0 (represents less than 40% mortality). Besides, the “mortality (score) Px” value in series [4] is listed as 9 (9 indicates 80-100% mortality). The “mortality (score) Mp” value in series [5] is listed as 9 (9 indicates 80-100% mortality).
For the compound `CCOCN(C(=O)C(C)c1ccc2sc(CC(C)C)nc2c1)c1snc(CC)c1Cl` (stereo not drawn) [Table 39 Compound 156], the “mortality (score) Hv” value in series [1] is given as 9 (9 indicates 80-100% mortality). Also, the “mortality (score) Dm” value in series [3] is 0 (represents less than 40% mortality). Besides, the “mortality (score) Px” value in series [4] is 9 (9 indicates 80-100% mortality). In addition, the “mortality (score) Mp” value in series [5] was 9 (9 indicates 80-100% mortality).
On to `Cc1nsc(NC(=O)C(F)c2ccc3oc(CC(C)C)nc3c2)c1Cl` (stereo not drawn) [Table 5 Compound 6], for which, in series [2], the “mortality (score) Db” value is recorded as 9 (9 indicates 80-100% mortality). In addition, the “mortality (score) Dm” value in series [3] is listed as 9 (9 indicates 80-100% mortality). The “mortality (score) Px” value in series [4] is 9 (9 indicates 80-100% mortality). Further, the “mortality (score) Mp” value in series [5] is given as 9 (9 indicates 80-100% mortality).
On to `CCOCN(C(=O)C(C)c1ccc2oc(C(F)(F)C(F)(F)F)nc2c1)c1snc(CC)c1Cl` (stereo not drawn) [Table 1 Compound 159], for which the “mortality (score) Db” value in series [2] is on record as 9 (9 indicates 80-100% mortality). In addition, the “mortality (score) Dm” value in series [3] is given as 9 (9 indicates 80-100% mortality). Besides, in series [4], the “mortality (score) Px” value was 9 (9 indicates 80-100% mortality). The “mortality (score) Mp” value in series [5] is listed as 9 (9 indicates 80-100% mortality).
Turning to `CCOCN(C(=O)C(C)c1ccc2oc(C(F)(F)C(F)(F)C(F)(F)F)nc2c1)c1snc(CC)c1Cl` (stereo not drawn) [Table 1 Compound 160], the “mortality (score) Db” value in series [2] is recorded as 9 (9 indicates 80-100% mortality). Besides, in series [3], the “mortality (score) Dm” value is recorded as 9 (9 indicates 80-100% mortality). The “mortality (score) Px” value in series [4] is reported as 9 (9 indicates 80-100% mortality). Also, the “mortality (score) Mp” value in series [5] is on record as 9 (9 indicates 80-100% mortality).
With `CCC(C(=O)Nc1snc(C)c1Cl)c1ccc2oc(C(F)(F)C(F)(F)C(F)(F)F)nc2c1` (stereo not drawn) [Table 2 Compound 10], the “mortality (score) Hv” value in series [1] is given as 9 (9 indicates 80-100% mortality). Moreover, the “mortality (score) Db” value in series [2] is listed as 9 (9 indicates 80-100% mortality). In addition, the “mortality (score) Dm” value in series [3] is given as 0 (represents less than 40% mortality). Also, the “mortality (score) Mp” value in series [5] is 5 (5 indicates 40-79% mortality).
With `CCc1nsc(NC(=O)C(F)c2ccc3oc(CC(C)(C)C)nc3c2)c1Cl` (stereo not drawn) [Table 5 Compound 87], in series [1], the “mortality (score) Hv” value is 9 (9 indicates 80-100% mortality). The “mortality (score) Dm” value in series [3] is given as 9 (9 indicates 80-100% mortality). Also, the “mortality (score) Px” value in series [4] is on record as 9 (9 indicates 80-100% mortality). The “mortality (score) Mp” value in series [5] is listed as 9 (9 indicates 80-100% mortality).
As for `Cc1nsc(NC(=O)C(C)c2ccc3oc(CC(C)C)nc3c2)c1Cl` (stereo not drawn) [Table 1 Compound 6], in series [2], the “mortality (score) Db” value is on record as 9 (9 indicates 80-100% mortality). Further, the “mortality (score) Dm” value in series [3] is reported as 0 (represents less than 40% mortality). Moreover, in series [4], the “mortality (score) Px” value is on record as 9 (9 indicates 80-100% mortality). The “mortality (score) Mp” value in series [5] is recorded as 0 (represents less than 40% mortality).
As to `CCc1nsc(NC(=O)C(C)c2ccc3oc(CC(C)(C)C)nc3c2)c1Cl` (stereo not drawn) [Table 1 Compound 87], in series [2], the “mortality (score) Db” value was 9 (9 indicates 80-100% mortality). Besides, in series [3], the “mortality (score) Dm” value was 9 (9 indicates 80-100% mortality). Moreover, the “mortality (score) Px” value in series [4] is 9 (9 indicates 80-100% mortality). Also, the “mortality (score) Mp” value in series [5] is 9 (9 indicates 80-100% mortality).
